The text below walks through data of patent publication US12213479B2, “Monoterpenoid/phenylpropanoid-containing compounds and methods of their making and use as herbicides” (KITTRICH CORPORATION, priority 2016, dated 2025).

Entries after “also recorded” stand apart in the source; their conditions may differ.

Assay type in all cases: in vivo
Data set [1] relates to various dicot weed species. The data set can be described thus: Selectivity assessment, dicot weed species compared to bluegrass. As to conditions: range over various weed species. An excerpt: Kentucky bluegrass seeds were purchased in a bag under the commercial name of. Individual seeds were sown for each pot (1.5″ wide×3″ deep) with approximately 7.5 g of soil for each plot. 10 seeds/plot was sown into numerous plots. After one month of germination, germinated plants were counted in each plot and this number was used for the total number of plants challenged per plot in the toxicity assessment.
The total number of plants were counted in each plot in 24×6 hexagonal small plot planter tray. The number of germinated seeds in each plot was enumerated after one month, and for each plot this number was recorded and used as the total for each plot. Differing concentrations of thymyloxyacetic acid was applied in 5% Triton-X 100 and 1:1 molar ratio potassium hydroxide:thymyloxyacetic acid to aid in the solubility of the compound in water. Ten mL of solution was applied to each plot, and the mortality of the plants was assessed at 3 days and 2 weeks post application (for some treatments). Mortality at these time points were enumerated out of the total plants germinated in each plot at the beginning of the assay. At both time points, the total number of dead plants and total number of plants at the beginning of the assay were recorded for each observation. A Probit model was used to calculate the LC50 values for each of the compounds explored in this assay. […]

The test system of data set [2] is Cocklebur (Xanthium spp.). Nature of the data set: Toxicity assay (probit LC50), cocklebur. An excerpt:
Cocklebur burs were obtained from the Department of Agronomy at Iowa State University. Individual seeds were sown for each pot (1.5″ wide×3″ deep) with approximately 7.5 g of soil for each plot. One bur/plot was sown into numerous plots. After one month of germination, germinated plants were counted in each plot and this number was used for the total number of plants challenged per plot in the toxicity assessment.
(§1) The total number of plants were counted in each plot in 24×6 hexagonal small plot planter tray. The number of germinated seeds in each plot was enumerated after one month, and for each plot this number was recorded and used as the total for each plot. Differing concentrations of thymyloxyacetic acid was applied in 5% Triton-X 100 and 1:1 molar ratio potassium hydroxide:thymyloxyacetic acid to aid in the solubility of the compound in water. Ten mL of solution was applied to each plot, and the mortality of the plants was assessed at 3 days and 2 weeks post application (for some treatments). Mortality at these time points were enumerated out of the total plants germinated in each plot at the beginning of the assay. At both time points, the total number of dead plants and total number of plants at the beginning of the assay were recorded for each observation. A Probit model was used to calculate the LC50 values for each of the compounds explored in this assay. A formulation control (with no active ingredient) was screened against a number of plants and factored into the final probit model. This formulation control had little-to-no effect by itself.

The test system of data set [3] is Waterhemp (Amaranthus tuberculatus). Nature of the data set: Toxicity assay (probit LC50), waterhemp.
Description: Waterhemp seeds were obtained from the Department of Agronomy at Iowa State University. Individual seeds were sown for each pot (1.5″ wide×3″ deep) with approximately 7.5 g of soil for each plot. Five seeds/plot was sown into numerous plots. After one month of germination, germinated plants were counted in each plot and this number was used for the total number of plants challenged per plot in the toxicity assessment.
as §1

The next data set has as its system Wood sorrel. The data set can be described thus: Foliar spray, wood sorrel. As to conditions: 20 sprays of 1%, observed 2 days after exposure and later. As to the method: Wood sorrel on the ground of the greenhouse was also treated with active ingredient in order to better assess the effects of foliar treatments on multiple plant species. A patch of wood sorrel was (approximately 4′×3′) was treated with 20 sprays (mist setting) from a MAINStays ironing spray bottle. Effects of the spray were recorded 2 days after exposure.

Data set [4] concerns Palmer Amaranth (Amaranthus palmeri). Nature of the data set: Toxicity assay (probit LC50), Palmer amaranth.
Description: Palmer amaranth seeds were obtained from the Department of Agronomy at Iowa State University. Individual seeds were sown for each pot (1.5″ wide×3″ deep) with approximately 7.5 g of soil for each plot. Five seeds/plot were sown into numerous plots. After one month of germination, germinated plants were counted in each plot and this number was used for the total number of plants challenged per plot in the toxicity assessment
as §1

As for `O=C(O)COc1ccc(Cl)cc1Cl` [2,4-D, 2,4-dichlorophenoxyacetic acid], in data set [1], the “selectivity ratio compared to a blue grass species” value is given as 2.56-5.97 fold. The “LC50 Value” came out at 770 ppm in data set [2] (Cocklebur); 1800 ppm in data set [3] (Waterhemp); 1300 ppm in data set [4] (Palmer Amaranth (Table 6)); 465.04 ppm in data set [4] (Palmer Amaranth, 2-week post application, probit); 1300 ppm in data set [4] (Palmer Amaranth, 3-day post application, probit). Also, the entries for the “Selective Toxicity Compared to Bluegrass” value in data set [2] (Cocklebur compared to bluegrass), in data set [3] (Waterhemp compared to bluegrass) and in data set [4] (Palmer Amaranth compared to bluegrass) were 5.97, 2.56 and 3.54, respectively. For the same compound, the “phytotoxic effect on wood sorrel, foliar spray” value in the data set with Wood sorrel was “took much longer to die”; with Wood sorrel (listed as 2,4-dichloroacetic acid), “plant death was not observed until much later; also recorded: uncontrolled growth and some chlorosis”. The “phytotoxicity compared with the other compound” value in data set [4] (Palmer amaranth, 95% confidence intervals overlapped) is “marginally more phytotoxic than thymyloxyacetic acid”. The “LC50 at two weeks compared with three days after application (residual character in soil)” value in data set [4] (in vivo) is recorded as “significantly lower LC50 value”.
